Data reported in patent publication US20240109972A1, “ANTIBODY AND TAXANE COMBINATION THERAPY” (Genmab A/S, priority 2020, published 2024).

What was measured:
interferon-gamma (IFN-γ) = test: Serum interferon-γ levels in cancer patients after GEN1046 (MSD multiplex immunoassay); format: in vivo, human
Experimental: Serum levels of IFN-γ were measured by a Meso Scale Discovery (MSD) multiplex immune-assay (cat. no. K15209G) following the manufacturer's instructions.

[1] = test system: effector memory CD8 T cells (CD8+CD45RA−CCR7− T cells); test: Proliferating (Ki67+) effector memory CD8 T cells in peripheral blood of patients (flow cytometry); conditions: human, in vivo
Experimental: 100 μL of whole blood was added to fluorochrome-conjugated monoclonal antibodies that bind specifically to cell surface antigens: CD45RA-FITC (clone LEU-18, BD Biosciences cat. no. 335039), CCR7-BV510 (clone 3D12, BD Biosciences, cat. no. 563449), CD8-PerCP-Cy5.5 (clone RPA-T8, BD Biosciences, cat. no. 560662). After incubation on ice, the stained samples were treated with FACS Lysing Solution (BD Biosciences, Catalog No 349202) to lyse erythrocytes. Excess antibody and cell debris were removed by washing with Stain Buffer (BD Biosciences, cat. no. 554656). Following lyse/wash, cells were fixed and permeabilized by incubation with Permeabilizing Solution 2 buffer (BD Biosciences, cat. no. 340973). Next, cells were washed and resuspended in Stain Buffer and incubated on ice with antibody to Ki67 (BV421 B56, BD Biosciences, cat. no. 562899) to detect proliferating cells. After incubation, excess antibody was removed by washing with Stain Buffer. Cells were resuspended in Stain Buffer and acquired on a BD FACSCanto™ II flow cytometer (Becton Dickinson) within 1 hour of staining.

Substance: GEN1046: PD-L1×4-1BB bispecific antibody: PD-L1-547-FEAL combined with CD137-009-HC7LC2-FEAR (SEQ ID NOs: 1, 5, 21, 19; 8, 12, 22, 20)
- Dose levels with higher magnitude and consistent modulation of peripheral pharmacodynamic endpoints (interferon-gamma (IFN-γ); IFNγ and proliferating Ki67+ effector memory CD8+ T cells): ≥ 200 mg
- Dose levels with maximal increases of IFN-γ (interferon-gamma (IFN-γ); first treatment cycle): 50 mg and 80 mg
- Increase of IFN-γ levels (interferon-gamma (IFN-γ); first treatment cycle, across all dose levels tested): more than 2 fold
- Cohort with maximal and more consistent modulation of proliferating CD8+ effector memory T cells [1]: 80 mg
